One experiment addresses Schisto B 2 (Schistosoma mansoni, UniProt Q95PM1). Put plainly: Cysteine protease inhibition, progress curve method, schistosoma B 2. The experiment is classed as biochemical. Particulars: 10 uM Cbz-Phe-Arg-AMC, 100 mM Na acetate pH 5.5, 5 mM cysteine. The procedure:
(§1) Standard assay conditions for the determination of kinetic constants used 10 uM fluorogenic peptide substrate, Cbz-Phe-Arg-AMC for the cysteine proteases from Leishmania spp and Schistosoma Mansoni, Cbz-Leu-Arg-AMC for the cysteine proteases from Plasmodium falciparum and Trypanosoma brucei rhodesiensi, and Ac-Lys-Glu-Lys-Leu-Arg-AMC (4 uM final substrate concentration) for the cysteine protease from Trypoanosoma cruzi, and were determined in 100 mM Na acetate at pH 5.5 containing 5 mM cysteine. Stock substrate solutions were prepared at concentrations of […] in DMSO with 10 uM (4 uM for Ac-Lys-Glu-Lys-Leu-Arg-AMC) final substrate concentration in the assays. The final DMSO concentration was 2% and the final volume was 100 uL. All assays were conducted at ambient temperature. Product progress curves were generated over 20 to 30 minutes following formation of AMC product.
(§2) Potential inhibitors were evaluated using the progress curve method. Assays were carried out in the presence of variable concentrations of test compound. Reactions were initiated by addition of enzyme to buffered solutions of inhibitor and substrate. Data analysis was conducted according to one of two procedures depending on the appearance of the progress curves in the presence of inhibitors. For those compounds whose progress curves were linear, apparent inhibition constants (Ki,app) were calculated according to equation 1 (Brandt et al., Biochemitsry, 1989, 28, 140):
(§3) v=VmA/[Ka(1+I/Ki,app)+A] (1)
(§4) Where v is the velocity of the reaction with maximal velocity Vm, A is the concentration of substrate with Michaelis constant of Ka, and I is the concentration of inhibitor.
(§5) [AMC]=vsst+(v0−vss)[1−exp (−kobst)]/kobs (2)
(§6) Where [AMC] is the concentration of product formed over time t, v0 is the initial reaction velocity and vss is the final steady state rate. Values for kobs were then analyzed as a linear function of inhibitor concentration to generate an apparent second order rate constant (kobs/inhibitor concentration or kobs/[I]) describing the time-dependent inhibition. A complete discussion of this kinetic treatment has been fully described (Morrison et al., Adv. Enzymol. Relat. Areas Mol. Biol., 1988, 61, 201).
(§7) Exemplary inhibition data for the compounds used in the present method collected in accordance with the above-described procedure are listed in Table I.

For a further experiment, the target named is Schisto B 1 (Schistosoma mansoni, UniProt P25792). Put plainly: Cysteine protease inhibition, progress curve method, schistosoma B 1. The format is biochemical. Particulars: 10 uM Cbz-Phe-Arg-AMC, 100 mM Na acetate pH 5.5, 5 mM cysteine; read-out: Schisto B 1 Ki. As for the experimental part:
as §1, §2, §3, §4, §5, §6, §7

Another experiment has as its target Rhodazain (Trypanosoma brucei rhodesiense, UniProt Q95PM0). Put plainly: Cysteine protease inhibition, progress curve method, rhodazain. The format is biochemical, Trypanosoma brucei rhodesiensi. The note with it: 10 uM Cbz-Leu-Arg-AMC, 100 mM Na acetate pH 5.5, 5 mM cysteine.
For the next experiment, the target named is Falcipain 2 (Plasmodium falciparum, UniProt Q8I6U4). Nature of the experiment: Cysteine protease inhibition, progress curve method, falcipain. The experiment is classed as biochemical. The note with it: 10 uM Cbz-Leu-Arg-AMC, 100 mM Na acetate pH 5.5, 5 mM cysteine. The procedure: as §1, §2, §3, §4, §5, §6, §7
Another experiment concerns the target Cruzain (Trypanosoma cruzi, UniProt P25779). Nature of the experiment: Cysteine protease inhibition, progress curve method, cruzain. The format is biochemical. The note with it: 4 uM Ac-Lys-Glu-Lys-Leu-Arg-AMC, 100 mM Na acetate pH 5.5, 5 mM cysteine; read-out: Cruzain Ki. Summed up:
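Kinetic constants from AMC-release progress curves over 20–30 min at ambient temperature in 100 mM Na acetate pH 5.5, 5 mM cysteine, 2% DMSO; enzyme added last to inhibitor plus substrate. Substrates: 10 uM Cbz-Phe-Arg-AMC (Leishmania, Schistosoma), 10 uM Cbz-Leu-Arg-AMC (falcipain), 4 uM Ac-Lys-Glu-Lys-Leu-Arg-AMC (cruzain). Ki,app from linear curves; time-dependent inhibition as kobs/[I].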

Read-outs that look alike come from different tables or passages of the source.

By Ki is commonly meant the equilibrium dissociation constant of an inhibitor or competing ligand from its target.

Sequence of Cruzain (P25779 123-337): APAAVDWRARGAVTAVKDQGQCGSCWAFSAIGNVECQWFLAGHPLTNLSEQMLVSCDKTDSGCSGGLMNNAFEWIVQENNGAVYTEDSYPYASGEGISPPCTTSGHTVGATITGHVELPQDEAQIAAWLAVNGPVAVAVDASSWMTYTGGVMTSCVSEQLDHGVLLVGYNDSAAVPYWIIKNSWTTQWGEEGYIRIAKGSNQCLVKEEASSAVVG
Sequence of Rhodazain (Q95PM0 entry or part of it): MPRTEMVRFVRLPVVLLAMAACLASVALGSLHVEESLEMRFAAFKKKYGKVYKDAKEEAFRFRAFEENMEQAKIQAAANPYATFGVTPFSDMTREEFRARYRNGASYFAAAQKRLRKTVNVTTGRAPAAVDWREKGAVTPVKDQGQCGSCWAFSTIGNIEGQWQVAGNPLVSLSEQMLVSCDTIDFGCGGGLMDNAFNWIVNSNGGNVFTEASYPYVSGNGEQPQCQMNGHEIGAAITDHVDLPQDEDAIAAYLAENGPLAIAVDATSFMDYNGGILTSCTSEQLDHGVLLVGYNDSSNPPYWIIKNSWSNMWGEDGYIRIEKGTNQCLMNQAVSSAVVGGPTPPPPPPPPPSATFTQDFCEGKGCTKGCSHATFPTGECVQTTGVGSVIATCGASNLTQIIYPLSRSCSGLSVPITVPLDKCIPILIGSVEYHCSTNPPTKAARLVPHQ
Sequence of Falcipain 2 (Q8I6U4 244-484): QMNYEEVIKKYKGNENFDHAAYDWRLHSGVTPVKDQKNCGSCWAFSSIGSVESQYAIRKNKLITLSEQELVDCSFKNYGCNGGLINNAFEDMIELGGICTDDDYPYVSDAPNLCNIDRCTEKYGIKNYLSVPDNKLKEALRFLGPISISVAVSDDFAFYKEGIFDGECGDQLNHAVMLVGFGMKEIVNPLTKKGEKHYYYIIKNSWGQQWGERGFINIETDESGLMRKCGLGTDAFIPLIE
Sequence of Schisto B 1 (P25792 89-340): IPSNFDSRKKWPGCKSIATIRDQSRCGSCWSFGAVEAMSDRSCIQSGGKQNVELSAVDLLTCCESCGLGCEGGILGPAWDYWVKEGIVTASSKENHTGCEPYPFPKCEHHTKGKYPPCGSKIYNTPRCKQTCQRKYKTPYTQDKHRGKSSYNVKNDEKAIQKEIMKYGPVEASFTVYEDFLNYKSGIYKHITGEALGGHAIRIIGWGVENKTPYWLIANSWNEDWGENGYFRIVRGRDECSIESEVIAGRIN
Sequence of Schisto B 2 (Q95PM1 entry or part of it): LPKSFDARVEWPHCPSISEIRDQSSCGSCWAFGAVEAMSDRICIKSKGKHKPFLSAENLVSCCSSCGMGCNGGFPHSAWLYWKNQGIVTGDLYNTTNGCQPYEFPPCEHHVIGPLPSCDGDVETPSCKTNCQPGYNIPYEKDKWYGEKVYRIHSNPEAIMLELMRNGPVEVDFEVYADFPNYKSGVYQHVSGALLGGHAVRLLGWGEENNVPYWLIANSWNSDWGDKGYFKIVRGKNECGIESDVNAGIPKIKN

For the compound `COc1ccc2oc(C(=O)N[C@@H](CC(C)C)C(=O)N[C@H]3CCCN(S(=O)(=O)c4ccc(F)cc4)CC3=O)cc2c1` [Example 85], the Ki at Schisto B 2 was determined as 130 nM; at Schisto B 1, 45 nM.

As for `COc1cccc(S(=O)(=O)N2CCC[C@H](NC(=O)[C@H](CC(C)C)NC(=O)c3oc4ccccc4c3C)C(=O)C2)c1` [Example 139, 3-Methyl-benzofuran-2-carboxylic acid-{(S)-1-[1-(3-methoxy-benzenesulfonyl)-3-oxo-azepan-4-ylcarbamoyl]-3-methyl-butyl}-amide], the Ki came to 230 nM on Schisto B 2 and 64 nM at Schisto B 1.

As for `CC(C)CC(NC(=O)c1ccc2c(c1)OCCCO2)C(=O)N[C@@H]1CCCN(S(=O)(=O)c2cccc[n+]2[O-])CC1=O` (single isomer, unassigned) [Example 78], the Ki at Rhodazain (Rhodazain Ki (nM)) came out at 4.6 nM; on Falcipain 2 it was 7.1 nM; at Cruzain it was 4.4 nM.

Consider `CC(C)C[C@@H](NC(=O)c1ccnc2ccccc12)C(=O)N[C@@H]1CCCN(S(=O)(=O)c2ccccn2)CC1=O` (single isomer, unassigned) [Example 153], for which the Ki at Rhodazain (Rhodazain Ki (nM)) stood at 1.6 nM; on Falcipain 2, 4.5 nM; at Cruzain it was 2.4 nM.

Consider `Cc1csc(C(=O)NC(CC(C)C)C(=O)N[C@H]2CCCN(C(=O)Nc3ccccc3F)CC2=O)c1` (stereo partly drawn) [Example 220, 4-Methyl-2-carboxylic acid {(S)-1-[-(2-fluoro-phenylcarbamoyl)-3-oxo-azepan-4-ylcarbamoyl]-3-methyl-butyl}-amide], for which the inhibition constant Ki worked out at 4.2 nM on Rhodazain (Rhodazain Ki (nM)), 3.9 nM on Falcipain 2 and 8.7 nM on Cruzain.

Take `CC(C)CC(NC(=O)c1nc(-c2ccccc2)oc1C(F)(F)F)C(=O)NC1CCCN(S(=O)(=O)c2ccccn2)CC1=O` (single isomer, unassigned) [Example 105]: the Ki on Rhodazain (Rhodazain Ki (nM)) is 5.3 nM; on Falcipain 2, 84 nM; at Cruzain it was 13 nM.

Take `CC(C)C[C@H](NC(=O)c1cc2sccc2s1)C(=O)N[C@H]1CCCN(C(=O)Nc2ccccc2F)CC1=O` [Example 218, Thieno[3,2-b]thiophene-2-carboxylic acid {(S)-1-[1-(2-fluoro-phenylcarbamoyl)-3-oxo-azepan-4-ylcarbamoyl]-3-methyl-butyl}-amide]: the Ki on Rhodazain (Rhodazain Ki (nM)) was found to be 2.3 nM; on Falcipain 2, 3.1 nM; on Cruzain it was 5.4 nM.

On to “Benzofblthiophene-2-carboxylic acid {(S)-3-methyl-1-[3-oxo-1-(1-oxy-pyridine-2-sulfonyl)-azepan-4-ylcarbamoyl]-butyl}amide [Example 51]”, for which the Ki at Rhodazain (read-out: Rhodazain Ki) stood at 3 nM; on Falcipain 2, 5.1 nM; on Cruzain, 6.4 nM.

Take `CC(C)C[C@@H](NC(=O)c1cc2ccccc2o1)C(=O)N[C@@H]1CCCN(S(=O)(=O)c2cccc[n+]2[O-])CC1=O` [Example 45]: the figures for the inhibitory constant (Ki) on Rhodazain (Rhodazain Ki (nM)), at Falcipain 2 and on Cruzain were 2.8 nM, 5.7 nM and 4.1 nM, respectively.

As for `CC(C)C[C@@H](NC(=O)c1cc2ccccc2o1)C(=O)NC1CCCN(S(=O)(=O)c2ccccn2)CC1=O` (single isomer, unassigned) [Example 21], the Ki at Rhodazain (Rhodazain Ki (nM)) was 3.2 nM; at Falcipain 2 it was 10 nM; at Cruzain, 3.8 nM.

As to `CC(C)CC(NC(=O)c1cc2ccccc2o1)C(=O)N[C@H]1CCCN(S(=O)(=O)c2nccn2C)CC1=O` (stereo partly shown) [Example 40], the Ki on Rhodazain (Rhodazain Ki (nM)) turned out to be 2 nM; at Falcipain 2 it was 4.5 nM; at Cruzain it was 2.3 nM.

Consider `COc1ccc2oc(C(=O)N[C@@H](CC(C)C)C(=O)N[C@H]3CCCN(C(=O)Nc4ccccc4F)CC3=O)cc2c1` [Example 221, 5-Methoxy-benzofuran-2-carboxylic acid {(S)-1-[1-(2-fluoro-phenylcarbamoyl)-3-oxo-azepan-4-ylcarbamoyl]-3-methyl-butyl}-amide], for which the values for the Ki on Rhodazain (Rhodazain Ki (nM)), at Falcipain 2 and on Cruzain were 1.2 nM, 2 nM and 3 nM, respectively.

For `CC(C)C[C@H](NC(=O)c1cc2ccccc2s1)C(=O)N[C@H]1C[C@H](C)CN(S(=O)(=O)c2ccccn2)CC1=O` [Example 197, Benzo[b]thiophene-2-carboxylic acid {(S)-3-methyl-1-[6-methyl-3-oxo-1-(pyridine-2-sulfonyl)-azepan-4-ylcarbamoyl]-butyl}-amide], the Ki amounted to 2.3 nM at Rhodazain (Rhodazain Ki (nM)), 4.1 nM at Falcipain 2 and 3.1 nM on Cruzain.

Take `CC(C)C[C@@H](NC(=O)c1ccc2c(c1)OCO2)C(=O)N[C@@H]1CCCN(S(=O)(=O)c2ccccn2)CC1=O` (stereo in doubt) [Example 59, Benzo[1,3]dioxole-5-carboxylic acid {(S)-3-methyl-1-[3-oxo-1-(pyridine-2-sulfonyl)-azepan-4-ylcarbamoyl]-butyl}amide]: the figures for the Ki at Rhodazain (Rhodazain Ki (nM)), on Falcipain 2 and on Cruzain were 2.4 nM, 3.4 nM and 3.4 nM, respectively.

Turning to `COc1cc2cc(C(=O)N[C@@H](CC(C)C)C(=O)NC3CCCN(S(=O)(=O)c4cn(C)cn4)CC3=O)oc2cc1OC` (stereo partly drawn) [Example 39, 5,6-Dimethoxy-benzofuran-2-carboxylic acid {(S)-3-methyl-1-[3-oxo-1-(1-methyl-1H-imidazole-4-sulfonyl)-azepan-4-ylcarbamoyl]-butyl}amide], the Ki on Rhodazain (Rhodazain Ki (nM)) worked out at 2.2 nM; at Falcipain 2, 3.9 nM; at Cruzain it was 7.4 nM.

For `COc1cccc2cc(C(=O)N[C@H](CC(C)C)C(=O)N[C@H]3CCCN(S(=O)(=O)c4ccccn4)CC3=O)oc12` [Example 164], the Ki at Rhodazain (Rhodazain Ki (nM)) was found to be 5.1 nM; at Falcipain 2, 2.2 nM; on Cruzain, 4.2 nM.

For `CC(C)C[C@@H](NC(=O)c1ccc2[nH]ccc2c1)C(=O)N[C@@H]1CCCN(S(=O)(=O)c2cccc[n+]2[O-])CC1=O` [Example 54, 1H-Indole-5-carboxylic acid {(S)-3-methyl-1-[3-oxo-1-(1-oxy-pyridine-2-sulfonyl)-azepan-4-ylcarbamoyl]-butyl}amide], the Ki at Rhodazain (Rhodazain Ki (nM)) is 4.1 nM; on Falcipain 2 it was 7.8 nM; at Cruzain, 5.2 nM.

As to `COc1cccc2cc(C(=O)N[C@@H](CC(C)C)C(=O)N[C@H]3CCCN(S(=O)(=O)c4ccccc4F)CC3=O)oc12` [Example 93, 7-Methoxy-benzofuran-2-carboxylic acid-{(S)-1-[1-(2-fluoro-benzenesulfonyl)-3-oxo-azepan-4-ylcarbamoyl]-3-methyl-butyl}-amide], the Ki at Rhodazain (Rhodazain Ki (nM)) was found to be 11 nM; at Falcipain 2, 7 nM; on Cruzain, 11 nM.

For `CC(C)C[C@H](NC(=O)c1cccc2ncccc12)C(=O)N[C@H]1CCCN(S(=O)(=O)c2ccccn2)CC1=O` [Example 185, Quinoline-5-carboxylic acid {(S)-3-methyl-1-[3-oxo-1-(pyridine-2-sulfonyl)-azepan-4-ylcarbamoyl]-butyl}-amide], the Ki on Rhodazain (Rhodazain Ki (nM)) is 2.1 nM; on Falcipain 2, 4.4 nM; on Cruzain, 1.8 nM.

Turning to `CC(C)C[C@H](NC(=O)c1cc2ccccc2o1)C(=O)N[C@H]1CCCN(S(=O)(=O)c2cn(C)cn2)CC1=O` [Example 42, Benzofuran-2-carboxylic acid {(S)-3-methyl-1-[1-(1-methyl-1H-imidazole-4-sulfonyl)-3-oxo-azepan-4-ylcarbamoyl]-butyl}amide], the Ki turned out to be 1.8 nM on Rhodazain (Rhodazain Ki (nM)), 5.3 nM at Falcipain 2 and 2 nM at Cruzain.

With `Cc1c(C(=O)N[C@@H](CC(C)C)C(=O)N[C@H]2C[C@H](C)CN(S(=O)(=O)c3ccccn3)CC2=O)oc2ccccc12` [Example 199, 3-Methyl-benzofuran-2-carboxylic acid {(S)-3-methyl-1-[6-methyl-3-oxo-1-(pyridine-2-sulfonyl)-azepan-4-ylcarbamoyl]-butyl}-amide], the Ki was found to be 2 nM on Rhodazain (Rhodazain Ki (nM)), 5.6 nM on Falcipain 2 and 2.3 nM on Cruzain.

For the origin of these results see patent US20030044399A1, “Method of treatment” (SmithKline Beecham Corporation, priority 1998, published 2003).
